Test results taken from US9090651B2, “Helix 12 directed pharmaceutical products” (ENDORECHERCHE, INC., priority 2004, dated 2015).
Where “and” joins values, the source holds several entries; their conditions need not be identical. Equal entries are not always repeated. Where two headings read alike, the source gives them in different places.

Tests used:
rat prostate = assay: Systemic antiandrogenic activity, orchidectomized immature male rats with DHT implant: prostate weight; type: in vivo; details: for inhibition in vivo at 0.5 mg: Rattus norvegicus, 168 h
Protocol: (§1) Immature male rats (Crl:CD(SD)Br) 22 to 24-day old were obtained from Charles-River, Inc. (St-Constant, Quebec, Canada) and housed up to 5 per cage in plastic bins in a temperature (23±1° C.)- and light (12 h light/day, lights on at 7 h15)-controlled environment. The rats were fed rodent chow and tap water ad libitum. The day following their arrival, the animals were orchidectomized (CX) under Isoflurane anesthesia via scrotal route and randomly assigned to groups of 5 animals.
(§2) Compounds were solubilized (when possible) in dimethylsulfoxide (DMSO, 10% final concentration) and administered as suspension in 0.4% methylcellulose. […] One group of animals received the antiandrogen Flutamide as reference. The animals were killed by cervical dislocation under isoflurane anesthesia on the 8th morning following castration. The ventral prostate and seminal vesicles were rapidly dissected and weighed.
(§3) W is the weight of the prostate or the seminal vesicle.

[1] = test system: ventral prostate, seminal vesicle and levator ani; assay: In vivo assessment of SARM effect on immature rats; set-up: species or system rat
Protocol: as §1
as §2, with “To evaluate the antiandrogenic activity, tested compounds were administered subcutaneously once daily at a dose of 0.5 mg/animal for antiandrogenitic activity or 0.2 mg/animal for androgenic activity for 7 days (SD 1 to 7). Compounds” for “Compounds”

Human Androgen Receptor = molecular target: T1, Human Androgen Receptor (Homo sapiens, UniProt P10275); assay: Androgen receptor binding assay (hydroxylapatite, [3H]R1881, cytosol of transfected HEK-293 cells); details: for Androgen Receptor Binding (%) Human RBA R1881 = 100: % RBA=100×IC50 R1881/IC50 compound, transfected cells; for RBA human: Table 4, relative to R1881
T1 sequence (P10275 1-920): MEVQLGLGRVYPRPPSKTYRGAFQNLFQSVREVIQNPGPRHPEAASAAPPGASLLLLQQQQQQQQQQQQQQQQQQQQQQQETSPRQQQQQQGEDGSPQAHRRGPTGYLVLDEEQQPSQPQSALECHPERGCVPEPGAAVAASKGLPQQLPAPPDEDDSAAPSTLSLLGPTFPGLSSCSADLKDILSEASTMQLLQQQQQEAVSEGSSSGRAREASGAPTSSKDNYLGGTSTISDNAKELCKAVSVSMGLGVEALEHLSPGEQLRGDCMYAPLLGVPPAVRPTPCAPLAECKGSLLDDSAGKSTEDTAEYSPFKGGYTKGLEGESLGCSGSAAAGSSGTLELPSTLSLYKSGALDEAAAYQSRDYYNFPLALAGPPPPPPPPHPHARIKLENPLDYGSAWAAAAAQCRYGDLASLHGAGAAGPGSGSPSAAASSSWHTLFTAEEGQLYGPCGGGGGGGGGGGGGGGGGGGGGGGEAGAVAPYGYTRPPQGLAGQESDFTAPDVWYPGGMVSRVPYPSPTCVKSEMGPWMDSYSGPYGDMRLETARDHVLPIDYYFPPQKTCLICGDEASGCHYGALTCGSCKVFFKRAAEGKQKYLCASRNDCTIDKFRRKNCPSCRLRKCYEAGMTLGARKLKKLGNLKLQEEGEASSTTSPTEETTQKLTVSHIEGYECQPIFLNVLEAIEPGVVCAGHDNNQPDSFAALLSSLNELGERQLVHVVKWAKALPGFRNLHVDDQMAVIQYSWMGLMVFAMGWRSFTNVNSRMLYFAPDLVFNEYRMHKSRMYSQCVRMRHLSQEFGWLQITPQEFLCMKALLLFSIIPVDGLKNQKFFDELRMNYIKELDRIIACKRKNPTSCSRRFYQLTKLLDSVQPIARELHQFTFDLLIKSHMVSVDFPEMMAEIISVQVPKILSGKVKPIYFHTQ

rat seminal vesicle = assay: Systemic antiandrogenic activity, orchidectomized immature male rats with DHT implant: seminal vesicle weight; type: in vivo; details: for inhibition in vivo at 0.5 mg: Rattus norvegicus, 168 h
Protocol: as §1, §2, §3

[2] = test system: Shionogi mouse mammary carcinoma cells; assay: Androgenic/antiandrogenic activity on DHT-stimulated Shionogi cell growth; type: cell-based; details: for IC50: Mus musculus; for Shionogi VS OH-FLU: Table 4, ratio of Ki hydroxyflutamide versus tested compound
[3] = test system: sebaceous glands of the left ear; assay: Topical antiandrogenic activity, ear sebaceous glands model in the male hamster; type: in vivo; details: Mesocricetus auratus, 336 h, topical on left pinna, read-out: Antiandrogenic activity in Hamster Ear Area Inh Vs Cx (%); for inhibition in vivo at 0.01 mg: 10 μg daily for 14 days; for inhibition in vivo at 0.1 mg: 100 μg daily for 14 days
Protocol: The antiandrogenic activity of compounds for topical use was determined using the ear sebaceous glands model in the male hamster.
Male Golden Syrian Hamsters (SYR) of 110-120 g were obtained from Harlan Sprague-Dawley (Madison, USA) and housed up to 2 per plastic cage in a temperature (22±3° C.) and light (12 h light/day, lights on at 7 h15)-controlled environment. The hamsters were fed with Certified Rodent Diet 5002 (pellet) and had access to tap water ad libitum. The animals were acclimatized for at least five days prior to beginning the study. Animals were randomly assigned to groups of eight hamsters. One group of hamsters were castrated under isoflurane-induced anesthesia on the day of dosing initiation (SD 1) and used as control group.
To evaluate the antiandrogenic activity, the tested compounds were applied topically on the inner part of the left ear, once daily, for 14 days. […] For animals of the castrated and intact control groups, one ten-μL vehicle was applied onto the left ear. No solution was applied on the right ear.
On Study Day 15, the hamsters were euthanized by cervical dislocation under isoflurane anesthesia. The left and right ears were collected attached together by the head skin, flat fixed on a paper and then immersed in 10% neutral buffered formalin. Punctures making a circular hole of 6 mm were made on the flat fixed ear in the region where the solution has been applied. These punch-made specimens were collected from each ear. Using a scalpel blade, the collected 6 mm round ear specimens were cut in the middle between the two cartilage ridges. The two equal parts of the ear round specimens were embedded in paraffin. After processing the tissue, the two parts were vertically embedded parallel to each other in such a way that the flat 6 mm area was facing out. From each paraffin block, one section (5 μm thick) was cut and collected on a glass slide. Thus, each slide contained two elongated sections of 6 mm length. Slides were stained with hematoxylin and eosin.
Using the video camera and the lens number X5 of the light microscope, the resulting field appearing on the screen has a length of 0.953 mm. When the first 6 mm long section was examined from the left to the right, the first and second fields were ignored and the third and fourth fields were captured for analysis by the image analyzer. Each field has the length of 0.953 mm. With the help of the screen mouse, the sebaceous glands within the whole field length (0.953 mm) were marked. Also, an area having the length of the whole field and the height between stratum granulosum and the upper edge of the cartilage was drawn.
The total area of the sebaceous glands (μm^2) in each examined field was calculated by the Image Analyser. We also measured the total area, which has the length of 0.953 mm and the height between stratum granulosum and the cartilage. In addition, the percentage of the area occupied by the glands was obtained. Thus, for each ear, two sections were cut and two fields from each section were analyzed. The total of the four readings was averaged and the mean standard error of the mean was calculated by the image analyzer. The results were expressed in μm^2 as the total surface of glands per field and also as percentage of the area occupied by the glands in the tissue.

[4] = 0.5 mg/day s.c., DHT 1-cm length implant
[5] = sc, read-out: IN VIVO Rat s.c. (+DHT) Prostate % inhibition, s.c., 0.5 mg/animal once daily for 7 days, +DHT
[6] = 0.2 mg/day s.c., absence of exogenous androgens, immature rats
[7] = sc, read-out: IN VIVO Rat s.c. (+DHT) SV % inhibition, s.c., 0.5 mg/animal once daily for 7 days, +DHT
[8] = read-out: Shionogi Antiandrogenic activity IC50 (nM), inhibition of DHT-stimulated Shionogi cell number
[9] = read-out: Shionogi IC50 (nM), Table 4, inhibition of DHT-stimulated Shionogi cell number
[10] = po, 0.5 mg, per os, read-out: Prostate Rat Inh % inh (0.5 mg, per os)
[11] = po, 0.5 mg, per os, read-out: SV RAT Inh % inh (0.5 mg, per os)

| Structure (SMILES) | Androgen Receptor Binding (%) Human RBA R1881 = 100 (Human Androgen Receptor) | IC50 [2, 8] [nM] | IC50 [2, 9] [nM] | Shionogi VS OH-FLU [2] | inhibition in vivo at 0.5 mg (rat prostate; [10]) [%] | RBA human (Human Androgen Receptor) [%] | inhibition in vivo at 0.01 mg [3] [%] | inhibition in vivo at 0.1 mg [3] [%] | inhibition in vivo at 0.5 mg (rat seminal vesicle; [11]) [%] | also measured |
| --- | --- | --- | --- | --- | --- | --- | --- | --- | --- | --- |
| CC(NC1CCCC1)c1cccc(OCC[C@]23CCC4C5CCC(=O)C=C5C[C@H](C)C4C2CC[C@@]3(C)O)c1 (stereo in doubt) [EM-7216] | 77% |  |  |  |  |  |  |  |  | inhibition of the stimulated weight of ventral prostate (rat prostate; [4]): 28%; inhibition in vivo at 0.5 mg (rat prostate; [5]): 28%; stimulation of the weight of levator ani [1, 6]: 238; stimulation of the weight of seminal vesicle [1, 6]: 200%; stimulation of the weight of ventral prostate [1, 6]: 370%; inhibition of the stimulated weight of levator ani [1, 4]: no inhibiting effect; inhibition of the stimulated weight of seminal vesicle (rat seminal vesicle; [4]): no inhibiting effect; inhibition in vivo at 0.5 mg (rat seminal vesicle; [7]): 0% |
| CC[C@H](NC1CCCCC1)c1cccc(OCC[C@]23CCC4C(CCC5CC(=O)CC[C@@]54C)C2CC[C@@H]3O)c1 (stereo partly drawn) [EM-6415] | 230% | 0.47 | 1.4 | 29 | 14 | 185 | 52 | 84 | 0 |  |
| CCC(CC)NC(c1cccc(OCC[C@]23CCC4C(CCC5CC(=O)CC[C@@]54C)C2CC[C@@H]3O)c1)C(C)C (stereo partly drawn) [EM-6446] |  |  | 1 | 51 | 11 | 715 | 56 | 79 | 3 |  |
| CC(C)CN1CCCCC1c1cccc(OCC[C@]23CCC4C(CCC5CC(=O)CC[C@@]54C)C2CC[C@@H]3O)c1 (stereo partly drawn) [EM-6493] | 92% and 173% | 4.3 | 3.6 | 16 | 15 | 173 | 44 | 63 | 19 |  |
| CCCCCN1CCCCC1c1cccc(OCC[C@]23CCC4C(CCC5CC(=O)CC[C@@]54C)C2CC[C@@H]3O)c1 (stereo partly drawn) [EM-6494] | 63% and 97% | 10.5 | 10.5 | 5.4 | 0 | 97 |  | 68 | 1 |  |
| CC(C)CNC(C)(C)c1cccc(OCC[C@]23CCC4C(CCC5CC(=O)CC[C@@]54C)C2CC[C@@H]3O)c1 (stereo partly drawn) [EM-6534] | 112% | 0.4 | 0.23 | 267 | 9 | 112 | 48 | 84 | 16 |  |
| COC1CCC2C3CCC4CC(=O)CC[C@]4(C)C3CC[C@]12CCOc1cccc(C(C)(C)NCC(C)C)c1 (stereo partly drawn) [EM-6628] |  |  | 5.9 | 14 | 15 | 796 | 58.1 |  | 0 |  |
| CCC(NC1CCCC1)c1cccc(OCC[C@]23CCC4C(CCC5CC(=O)CC[C@@]54C)C2CC[C@@H]3OC)c1 (stereo partly drawn) [EM-6640] |  |  | 18 | 5.3 | 10 | 438 | 46.3 |  | 0 |  |
| CCC(CC)N(C)C(CC)c1cccc(OCC[C@]23CCC4C5CCC(=O)C=C5CCC4C2CC[C@@H]3O)c1 (stereo partly drawn) [EM-6680] | 140% | 1.2 |  |  | 0 | 140 | 64.7 |  | 21 | inhibition in vivo at 0.5 mg (rat prostate; [5]): 0%; IN VIVO Rat (+DHT) Prostate % inhibition (per os) (rat prostate; per os, +DHT): 0 (p.o.) %; Prostate Rat Inh % inh, s.c. (rat prostate; s.c.): 0 s.c. 0%; inhibition in vivo at 0.5 mg (rat seminal vesicle; [7]): 40%; IN VIVO Rat (+DHT) SV % inhibition (per os) (rat seminal vesicle; per os, +DHT): 21%; SV RAT Inh % inh, s.c. (rat seminal vesicle; s.c.): 40% |
| CCCC(NC(CC)CC)c1cccc(OCC[C@]23CCC4C(CCC5CC(=O)CC[C@@]54C)C2CCC3=O)c1 (stereo partly drawn) [EM-6842] |  |  | 0.4 | 183 | 18 | 451 | 63.8 |  | 27 |  |
